Data published in patent publication US7153685B2 (The Board of Trustees of the University of Illinois, priority 2002, dated 2006).

Key:
[1] = test system: putative ERE in the Bcl2 gene; assay: EMSA, ER binding to putative ERE in the Bcl2 gene; details: summary statement
Protocol: (§1) Gel mobility shift assays were performed essentially as described [Zhang, 1999 #38]. Each 20 μl reaction contained 50 mM KCl, 15 mM Tris-HCl (pH 7.9), 4 mM dithiothreitol, 0.2 mM EDTA, 3 μg of poly(dIdC) and 10% glycerol; bovine serum albumin (BSA) was added to each sample for a total of 10 μg of protein. Free probe and protein-DNA complexes were quantitated using a phosphor imager and ImageQuant 5.0 (Molecular Dynamics, Inc., Sunnyvale, Calif.). The sequence of one DNA strand of each of the three probes (SEQ ID NOS:61–63) used for the gel mobility shift assays are presented in Table 31. The ERE or PAL sequences are underlined.
It therefore seemed possible that binding of wild-type ER to the pS2 ERE is based on strong binding of one monomer of the ER dimer to the cERE half site (aGGTCA; SEQ ID NO: 65) and weak non-specific interaction of the other ER monomer with the sequence at the other half site. To test this possibility, binding of wild-type and the ER mutants to a putative ERE in the Bcl2 gene was examined. Like pS2, Bcl2 contains a cERE half site, but also contains a second, different half site that deviates from the consensus sequence by one nucleotide.

[2] = test system: ATL2/pS2 ERE-LUC reporter in HepG2 cells; assay: MOX-dependent transactivation by wild-type and mutant ERs, transient transfection, luciferase reporter; assay type: cell-based, human; details: 10 nM MOX
wild type hERα = molecular target: T1, wild type hERα (Homo sapiens, UniProt P03372, G400V); assay: Ligand-dependent luciferase reporter transactivation in transfected HepG2 cells; details: for MOX-dependent increase in luciferase activity: ATL2/cERE-LUC, 10 nM MOX
T1 sequence (P03372 1-595 G400V): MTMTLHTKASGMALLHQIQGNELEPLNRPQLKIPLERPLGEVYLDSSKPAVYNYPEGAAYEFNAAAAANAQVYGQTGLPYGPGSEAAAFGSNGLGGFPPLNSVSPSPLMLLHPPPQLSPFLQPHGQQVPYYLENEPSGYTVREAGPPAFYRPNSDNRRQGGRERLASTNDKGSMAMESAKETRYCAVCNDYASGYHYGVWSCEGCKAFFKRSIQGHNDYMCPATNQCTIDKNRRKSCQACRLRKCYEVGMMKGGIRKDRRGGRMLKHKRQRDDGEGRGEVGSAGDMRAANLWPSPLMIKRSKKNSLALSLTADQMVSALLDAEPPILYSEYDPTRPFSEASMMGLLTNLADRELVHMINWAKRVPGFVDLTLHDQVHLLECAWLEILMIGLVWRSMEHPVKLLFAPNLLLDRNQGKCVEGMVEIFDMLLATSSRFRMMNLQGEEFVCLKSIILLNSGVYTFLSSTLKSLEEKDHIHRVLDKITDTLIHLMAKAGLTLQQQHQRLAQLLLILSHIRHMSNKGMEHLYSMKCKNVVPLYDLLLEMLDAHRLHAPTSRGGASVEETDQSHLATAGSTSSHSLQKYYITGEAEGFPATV
Protocol: HepG2 human hepatoma cells were maintained in a humidified 5% CO2 incubator at 37° C. in Dulbecco's Modified Eagle's Medium (DMEM; Sigma; St. Louis, Mo.) supplemented with 10 % charcoal-dextran-stripped fetal bovine serum (CD-FBS; Atlanta Biologicals, Inc; Atlanta, Ga.), 50,000 U/l of penicillin, and 50 mg/liter streptomycin (Life Technologies, Inc.). MCF-7 cells were routinely maintained in DMEM/Nutrient Mixture F-12 (DMEM/F12) supplemented with 10% heat-inactived FBS, 50,000 U/l of penicillin, and 50 mg/l streptomycin. CHO-S cells were maintained in DMEM/F12 supplemented with 10% heat-inactivated FBS (CD-FBS when ERs were being expressed) or 10% CD-new born calf serum (CD-NBCS, when reporter activity by different ligands were measured), 29.2 mg/l L-glutamine (Sigma), and 50,000 U/l of penicillin and 50 mg/l streptomycin.
Transient transfections in HepG2 cells was accomplished using calcium phosphate co-precipitation (Ausubel et al., 1987). Briefly, cells were plated in 12-well microplates at a density of 1×10^5 cells/well. The next day, the medium was replaced, and 2–6 hours later, precipitated calcium phosphate:DNA co-crystals were added. After 12–16 hours, the cells were shocked for 3 minutes with 20% glycerol in Tris-buffered saline, pH 7.4. Fresh medium and (if any) hormones were added. For MCF-7 and 231 cells, transient transfection was carried out using the Tfx™-20 reagent (Promega; Madison, Wis.) according to the manufacturer's direction with minor changes. Briefly, 1×10^5 cells were plated in each well of 12-well microplates one day before transfection. A 1:3 ratio of DNA to lipid was used. The DMEM/F12 medium without serum was used as carrier for the DNA-lipid mixture. After 1 hour incubation with the DNA-lipid-DMEM/F12 at 37° C., the cells were transferred to fresh DMEM/F12 supplemented with 10% CD-FBS, 50,000 U/I of penicillin, 50 mg/l streptomycin and hormones. Transfection on CHO—S cells was described as above for the preparation of ERs extraction except the medium contained 10% CD-NBCS. The cells subjected to either transfection method were harvested 48 hours post-transfection. Reporter assays were performed by lysing the cells in situ with 250 μl of passive lysis buffer (Promega). Activity was determined using the dual luciferase assay protocol according to the manufacturer's directions (Promega) on a Monolight 2010 luminometer (Analytical Luminescence, San Diego, Calif.)
Transient transfections of HepG2 cells were carried out and luciferase activity determined.

cERE probe = assay: EMSA (gel mobility shift), ER binding to cERE probe; details: CHO-S extracts
Protocol: (§2) CHO—S cells (Life-Technologies; Grand Island, N.Y.) were transfected using Lipofectamine 2000 (Life-Technologies). Transfection was performed according to the manufacturer's instructions, except cells were grown in 6-well plates coated with 1 ml of 0.1 mg/mL polylysine for 24 hours at 37° C. prior to transfection. One μg of CMV-hERα and 3 μg of pTZ18U carrier DNA were used for each well; DNA:Lipofectamine 2000 was 1:3. 17β-estradiol was added to a final concentration of 10 nM 1 hour before harvest. Whole cell extracts were prepared as described (Zhang et al., 1996) with a modified extraction buffer (50 m-M Tris-HCl, pH 7.5, 1.5 mM EDTA, 10 mM Na2MoO4, 0.5 M NaCl, 10% glycerol, 0.5 mM β-mercaptoethanol, 50 μg/ml leupeptin, 1 μg/ml pepstatin and 5 μg/ml aprotinin).
as §1
To compare binding of wild type hERα and the ER mutants to the EREs, protein titrations were performed. Increasing amounts of extracts containing equivalent levels of wild-type ER or ER mutants were incubated with the cERE. The ER:ERE complexes were then analyzed by EMSA. […] The mutants required 1.5–2.4-fold more extract to bind 50% of the cERE probe than wild-type ER. […] Even at the highest level of extract (8 μg), wild-type ER shifted only ˜15% of the pS2 probe.
FIG. 1 (Legend) A. Panel (i), Western blots of normalized whole cell extracts of wild type hERα and mutants from transfected CHO-S cells. Lane 1–13: mutants 4, 2, 57.1, 50.1, 15.3, wild type ER, 7.2, 6.2, 4.3, 3.1, 2.1, wild type, and 3M, respectively. Panel (ii), The three ERE sequences used in these studies. The nucleotides that differ from those in the consensus ERE (cERE) are underlined. Nucleotides in lower case lettering are less well conserved or not conserved in EREs. […] The data were calculated by PhosphorImager analysis. (B) The labeled cERE probe was incubated with 0.5, 1.0, 2.0 and 4.0 μg of whole cell extracts of wild type hERα, or extracts containing the mutant ERs normalized to contain the same amount of ER as the wild-type ER extract at each point. (C) Gel shift assays using the labeled pS2 ERE probes and increasing amounts (1.0, 2.0, 4.0 and 8.0 μg) of the whole cell extracts containing wild-type ER and each of the ER mutants. (D) Gel shift assays using the labeled pS2 palindrome ERE probe. The ER extract contained 2.0, 4.0 and 8.0 μg of whole cell extract (panel (i)), and 15 μg (panel (ii)). Lanes 1–7 (panel (ii)) represent wild type hERα, and mutants 3M, 3.1, 4.3, 6.2, 2 and 4, respectively. D (iii) contains a graph of the percentage of the labeled pS2 PAL probe shifted calculated by PhosphorImager analysis of the data in D(i) and D(ii).

pS2 ERE probe = assay: EMSA (gel mobility shift), ER binding to pS2 ERE probe
Protocol: as §2, with “Whole cell extracts were prepared as described (Zhang et al., 1996) with a modified extraction buffer (50 m-M Tris-HCl, pH 7.5, 1.5 mM EDTA, 10 mM Na2MoO4, 0.5 M NaCl, 10% glycerol, 0.5 mM β-mercaptoethanol, 50 μg/ml leupeptin, 1 μg/ml pepstatin and 5 μg/ml aprotinin).” left out
(§3) Gel mobility shift assays were performed essentially as described [Zhang, 1999 #38]. […] Free probe and protein-DNA complexes were quantitated using a phosphor imager and ImageQuant 5.0 (Molecular Dynamics, Inc., Sunnyvale, Calif.). […]
To compare binding of wild type hERα and the ER mutants to the EREs, protein titrations were performed. […] The ER:ERE complexes were then analyzed by EMSA. […]
(§4) FIG. 1 (Legend) A. Panel (i), Western blots of normalized whole cell extracts of wild type hERα and mutants from transfected CHO-S cells. […] The data were calculated by PhosphorImager analysis. […] D (iii) contains a graph of the percentage of the labeled pS2 PAL probe shifted calculated by PhosphorImager analysis of the data in D(i) and D(ii).

pS2 PAL probe = assay: EMSA (gel mobility shift), ER binding to pS2 PAL probe
Protocol: as §2, §3, §4

[3] = test system: ATL2/PAL-LUC reporter in HepG2 cells; assay: MOX-dependent transactivation by wild-type and mutant ERs, transient transfection, luciferase reporter; assay type: cell-based, human; details: 10 nM MOX
[4] = test system: ER3M-VP16 fusion proteins (N-79, N-129, C-79, C-129); assay: ATL8/PAL-LUC transactivation with CMV-driven ER3M-VP16 fusion proteins in HepG2 cells; assay type: cell-based, human; details: 10 nM ICI 182,780, no OHT
Description: These fragments were digested with KpnI and BamHI and then purified from agarose gels. […] To create C-129, this ER fragment was digested with XbaI and KpnI and then cloned together with the DNA fragment containing 129 amino acids of VP16 into 5.9 kb vector generated by digestion of CMV-hER with XbaI and BamHI. The same strategy was adopted to create C-79 using the DNA fragment containing 79 amino acids of VP16. Therefore, the expression of these chimeras is driven by the same CMV promoter as that of ER-3M. […] The amplified PCR product was digested with NcoI and NotI. […] This fragment and the NcoI/NotI PCR fragment were then inserted together into the 4.3 kb vector, pGL3-ATL8/PAL-LUC, which was created by digesting ATL8/PAL-LUC completely with NcoI and partially with XbaI so that the luciferase gene was replaced by N-79.

Row | Molecule | binding to cERE and pS2 ERE DNA probes (cERE probe) | activation of transcription from native pS2 ERE compared with wild-type ER [2] | other results
1 | ER4.3: ERα DNA binding domain mutant, SEQ ID NO:8 (WGCKAFFKRSIVRPTDY; Mutant DBD of ER) | – | more effectively than wild-type ER | binding to, or transcription from, the Bcl2 and TGF α1 EREs [1]: no detectable binding to, or transcription from
2 | C#C[C@]1(O)CC[C@H]2[C@@H]3CCc4cc(O)ccc4[C@H]3[C@@H](OC)C[C@@]21C [MOX, moxestrol] | – | – | transactivation level on two copies of pS2 PAL (wild type hERα; ATL2/PAL-LUC, 10 nM ligand): undetectable; MOX-dependent increase in luciferase activity (wild type hERα; 0.75 ng expression plasmid): 32 fold; MOX-dependent increase in luciferase activity (wild type hERα; 2.5 ng expression plasmid): 41 fold
3 | ER50.1: ERα DNA binding domain mutant, SEQ ID NO:22 (WSCKGFFKRSKQGHNDY; Mutant DBD of ER) | little or no binding | – | –
4 | ER57.1: ERα DNA binding domain mutant, SEQ ID NO:24 (WSCKGFFKRSIKGVPTY; Mutant DBD of ER) | little or no binding | – | –
5 | ER6.2: ERα DNA binding domain mutant, SEQ ID NO:10 (EGCKAFFKRSIARRLDY; Mutant DBD of ER) | – | less effective | change in binding to pS2 ERE probe compared with cERE (pS2 ERE probe): dramatic decrease in binding; binding to pS2 PAL (pS2 PAL probe): negligible binding; ability to activate transcription of the pS2 PAL reporter [3]: little or no ability to activate transcription
6 | C[C@]12CC[C@@H]3c4ccc(O)cc4C[C@@H](CCCCCCCCC[S+]([O-])CCCC(F)(F)C(F)(F)F)[C@H]3[C@@H]1CC[C@@H]2O (some centres unmarked) [ICI 182,780] | – | – | effect on basal transactivation by the fusion proteins [4]: decreased
7 | ER3.1: ERα DNA binding domain mutant, SEQ ID NO:6 (WGCKAFFKRSINRHNSY; Mutant DBD of ER) | – | less effective | –
8 | ER4: ERα DNA binding domain mutant, SEQ ID NO:14 (WGCKAFFKRSIARGNDY; Mutant DBD of ER) | – | more effectively than wild-type ER | –
9 | ER3M: ERα DNA binding domain mutant, residues 203–219 as SEQ ID NO:4 (WGCKAFFKRSIAGGNDY; Mutant DBD of ER) | – | more effectively than wild-type ER | binding to, or transcription from, the Bcl2 and TGF α1 EREs [1]: no detectable binding to, or transcription from
10 | ER2: ERα DNA binding domain mutant, SEQ ID NO:12 (WGCKAFFKRSIARHNDY; Mutant DBD of ER) | – | less effective | –

Now from value to molecule, other results behind:

Row | binding to cERE and pS2 ERE DNA probes (cERE probe) | Molecule | activation of transcription from native pS2 ERE compared with wild-type ER [2] | other results
11 | little or no binding | ER2.1: ERα DNA binding domain mutant, SEQ ID NO:16 (WSCKAFFKRSIAGGNDY; Mutant DBD of ER) | – | –
12 | little or no binding | ER7.2: ERα DNA binding domain mutant, SEQ ID NO:18 (EGCKAFFKRSIQRHPRY; Mutant DBD of ER) | – | –
13 | little or no binding | ER15.3: ERα DNA binding domain mutant, SEQ ID NO:20 (ESCKAFFKRSIGGHNYY; Mutant DBD of ER) | – | –
